The text below walks through data of patent US11241436B2, “Autophagy inducers for treatment of CNS conditions” (Northwestern University, priority 2017, dated 2022).

Test [1] has as its system GFP-LC3 transgenic mice. Kind of test: GFP-LC3 puncta in tissues of GFP-LC3 transgenic mice. Type of test: in vivo, mouse. The conditions noted are these: for numbers of GFP-LC3 puncta (autophagosomes): mouse brain; for number of GFP-LC3 puncta (autophagosomes): brain frontal cortex, heart, liver and muscle. The text has this: Results represent mean±s.d. Scale bar, 25 μm. N>100 cells or N2::4 mice.
Scale bar, 20 μm. Results represent mean±s.d. N≥4 mice.
Results represent mean±s.e.m. Statistics compare each value to the one with DMSO treatment. *, P<0.05; **, P<0.01; ***, P<0.001, t test. Scale bar: 20 μm.
To test this hypothesis, it was confirmed that Rg2 induces autophagy in vivo, by injecting Rg2 intraperitoneally (i.p.) into transgenic mice globally expressing GFP-LC3. […] Furthermore, in vivo autophagy induction by Rg2 via GFP-LC3 puncta assays in both muscle and brain was examined. […] Thus, the majority of Rg2 is not bound by plasma proteins and is freely available. Taken together, Rg2 was identified as a new in vivo autophagy inducer in vivo.
(§1) Autophagy analyses. For assessment of autophagy in vivo, 8-week old male WT and Becn 1FA/FA mice crossed to GFP-LC3 mice were exercised for 90 minutes, or starved for 48 h, and then anaesthetized by isoflurane and perfused with 4% PFA Brain and muscle samples were fixed in 4% PFA overnight, 15% sucrose for 4 h and 30% sucrose overnight before frozen sections were prepared. The number of GFP-LC3 puncta per unit area of tissue was quantified by fluorescence microscopy. Autophagy in vivo was also analyzed by western blot analysis of brain tissue extracts with antibodies against LC3 and p62/SQSTM1 (see below for details).

Test [2] concerns Hela cells. Kind of test: Western blot detection of LC3 and p62 in Hela cells. It counts as cell-based. As for the experimental part: (§2) Western blot analyses. Cell or mouse muscle and brain extracts were prepared in lysis buffer containing 50 mM Tris (pH 7.4), 150 mM NaCl, 1 mM EDTA, 1% Triton X-100, halt proteinase inhibitor cocktail (ThermoFisher Scientific) and halt phosphatase inhibitor cocktail (ThermoFisher Scientific), and subjected to western blot analysis with anti-LC3 (Novus Biologicals, NB100-2220), anti-SQSTM 1 (Abnova, H00008878-M01), anti-Af342 (Invitrogen; 700254), anti-APP (Biolegend; 803001), HRP-conjugated GFP antibody (Santa Cruz Biotechnology, sc9996), anti-HA (Cell Signaling Technology, C29F4), anti-ATG7 (Sigma Aldrich; A2856), anti-LDLR (Abeam, ab52818), anti-LRP 1 (Abeam, ab92544), and anti-ACTB/f3-actin-HRP (Santa Cruz Biotechnology, sc47778 HRP) antibodies. The band intensity was analyzed using the ImageJ software.
A general note: Immunoblotting shows a protein as a band on a membrane.

Test [3] deals with LC3 and p62/SQSTM1. Kind of test: Western blot detection of LC3 and p62/SQSTM1 in mouse tissues. Type of test: in vivo. As to conditions: for LC3-II conversion / levels of p62 (SQSTM1): mouse brain. As for the experimental part: WAT, white adipose tissue; BAT, brown adipose tissue.
as §1, §2

Test [4] has as its system WT mice. In words: Analgesic tolerance test during chronic WIN treatment. Type of test: in vivo, mouse. As to conditions: WT mice, co-treatment with daily WIN for 14 d, compared with vehicle. As for the experimental part: Briefly, mice were injected with WIN for 14 d, and analgesic tolerance was measured without WIN treatment on day 0, and after 1-h WIN treatment on day 1 and day 14.
There were no genotype differences either in basal pain sensitivity to infrared heat-generated pain (agonist-free, day 0) (FIG. 2C), or in analgesic effects of acute WIN treatment prior to chronic WIN administration (day 1) (FIG. 2D).

Test [5] deals with Aβ42. In words: Dot blot assay of Aβ42 in brain of 5XFAD mice. It counts as in vivo, mouse. As for the experimental part: Total protein loading was labeled by Ponceau S. N=5. **, P<0.01, t test.
Total protein loading was labeled by Ponceau S. Triplicate experiments from 4-5 mice in each group were shown. Results represent mean±s.e.m. NS, not significant; *, P<0.05; **, P<0.01; ***, P<0.001, t test.
Total protein loading was labeled by Ponceau S. Triplicate experiments from 4 mice in each group were shown.
Dot blot assay. Snap frozen hemi-brain were homogenized in 800 μl phosphate-buffered saline (PBS; Sigma-Aldrich, D8537) with 1% Triton X-100 supplemented with halt proteinase inhibitor cocktail (ThermoFisher Scientific), and halt phosphatase inhibitor cocktail (ThermoFisher Scientific). Protein concentration was quantified using BCA Assay (Pierce). For Af342 dot blots, 10 mg/ml brain homogenates were extracted in guanidine buffer (5 M guanidine-HCl [GuHCl], 50 mM Tris HCl pH 8.0) overnight at room temperature. One μl of sample was spotted in triplicate on 0.2 μm nitrocellulose membrane, and dried for 1 h at 37° C. The membrane was stained with Ponceau S, and the dot blot signal on the membrane was detected by immunostaining with Aβ42 antibody (Invitrogen, 700254, 1:1000) and HRP-conjugated secondary antibody (Santa Cruz Biotechnology, sc2004, 1:2000). Aβ42 signals were normalized to the Ponceau S staining. To separate soluble and insoluble Aβ fractions, 10 mg/ml of the total homogenated brains were centrifuged at 14000 rpm, 4° C. for 30 min. The supernatant (soluble fraction) was used directly for dot blot assays. The pellet (insoluble fraction) was extracted in guanidine buffer overnight at room temperature, and used in dot blot analyses. […] One μl of each sample was spotted on nitrocellulose membrane for dot blot analysis.

Test [6] has as its system APP. Kind of test: Expression of the precursor APP in brain of 5XFAD mice. Type of test: in vivo, mouse. As for the experimental part: as §2
The mark [7] stands for this setting: 6-month old 5XFAD mice, ML246 5 mg/kg i.p. for 5 weeks.
The mark [8] stands for this setting: liver, muscle, brain, heart, white and brown adipose tissue.

With `N=c1c2c(-c3ccccc3)c(-c3ccccc3)n(Cc3ccccc3)c2ncn1[C@H]1CC[C@H](O)CC1` [ML246], the “numbers of GFP-LC3 puncta (autophagosomes)” value in test [1] is given as “markedly increased”. The “levels of p62 (SQSTM1)” value in test [2] is listed as “decreased”. In test [3], the LC3-II conversion result is on record as “not detect significant changes” and the “levels of p62 (SQSTM1)” value is on record as “decreased”. The “pain-relieving effect of WIN on day 14” value in test [4] was “potently rescued”. In addition, in test [5] (setting [7]), the “insoluble Aβ42 in brain” value was “decreased levels” and the “soluble Aβ42 in brain” value is “decreased levels”. Also, the “effect on brain Aβ42” value in test [5] (autophagy-deficient 5XFAD Becn1+/− KO mice, ML246 5 weeks) is given as “abolished”. In test [6] (ML246 for 5 weeks), the “expression of the precursor APP” value was “not affected”.
Regarding `CC(C)=CCC[C@](C)(O)[C@H]1CC[C@]2(C)[C@@H]1[C@H](O)C[C@@H]1[C@@]3(C)CC[C@H](O)C(C)(C)[C@@H]3[C@@H](O[C@@H]3O[C@H](CO)[C@@H](O)[C@H](O)[C@H]3O[C@@H]3O[C@@H](C)[C@H](O)[C@@H](O)[C@H]3O)C[C@]12C` [Rg2, ginsenoside Rg2], the “number of GFP-LC3 puncta (autophagosomes)” value in test [1] (10 mg/kg i.p.) was “significantly increases”. The “number of GFP-LC3 puncta (autophagosomes)” value in test [1] (20 mg/kg i.p.) is on record as “significantly increases”. In test [1] (brain), the “duration of autophagy activity” value was “at least 24 h” and the “time of peak of autophagy activity” value was 4 h. Besides, in test [1], the “numbers of GFP-LC3 puncta (autophagosomes)” value is “markedly increased”. In test [1] (muscle), the “time of decline of autophagy to the basal level” value fell in the range of 8 to 16 h and the “time of peak of induced autophagy” value is listed as 4 h. Also, in test [2], the “levels of p62 (SQSTM1)” value is “decreased”. Also, in test [3] (setting [8]), the “LC3-I to LC3-II conversion” value was “increased” and the “levels of SQSTM1” value is “decreased levels”. Also, in test [3], the LC3-II conversion entry was “not detect significant changes” and the “levels of p62 (SQSTM1)” value was “decreased”. The “pain-relieving effect of WIN on day 14” value in test [4] is “potently rescued”. For the same compound, the “level of brain Aβ42” value in test [5] (Rg2 injection for 16 weeks in 2 month-old male 5XFAD mice vs vehicle (DMSO)) was “effectively decreased”. Moreover, the “expression of the precursor APP” value in test [6] (Rg2 for 16 weeks) is “remained unaffected”.
